Assay results published in article PMC3574189 (Journal of medicinal chemistry, 2013).

Columns and labels:
[1] = tested on: PRI54M (PR with I54M mutation); assay: Fluorescence assay of HIV-1 protease inhibition; type: biochemical; details: PRI54M vs PRWT
[2] = tested on: PRV82A (PR with V82A mutation); assay: Fluorescence assay of HIV-1 protease inhibition; type: biochemical; details: PRV82A vs PRWT
PRD30N = details: mutant PRD30N; ref [22], [23]; cited from earlier work
PRI50V = details: mutant PRI50V; ref [22], [23]; cited from earlier work

Row | SMILES | increased Ki relative to PRWT [1] | increased Ki relative to PRWT [2] | Ki (PRD30N) | Ki (PRI50V)
1 | COc1ccc(S(=O)(=O)N(CC(C)C)C[C@@H](O)[C@H](Cc2ccccc2)NC(=O)O[C@H]2CO[C@H]3O[C@@H]4OCC[C@@H]4[C@H]32)cc1 [Compound 1, GRL-0519] | 6-7 fold | 6-7 fold |  | 
2 | CC(C)CN(C[C@@H](O)[C@H](Cc1ccccc1)NC(=O)O[C@H]1CO[C@H]2OCC[C@H]21)S(=O)(=O)c1ccc(N)cc1 [DRV, darunavir] |  |  | 6.6 nM | ≤ 18 nM
